Test results from US10150760B2, “Compounds for use in preparing heterocyclic triazole agonists of the APJ receptor” (AMGEN INC., priority 2016, dated 2018).

Molecular target: human APJ receptor (Homo sapiens (Human), UniProt P35414)
Assay: [35S]GTPγS binding assay on membranes from CHO cells stably expressing human APJ receptor
Format: biochemical
Conditions: read-out: Activity hAPJ SPA EC50 IP
Procedure: The human APJ receptor was cloned by polymerase chain reaction and the gene encoding the receptor was subcloned in pFLAG-CMV™-3 expression vector (Sigma, Saint Louis, Mo. USA) in-house at Amgen. A GTPγS binding assay was performed on membranes prepared from CHO cells stably expressing human APJ receptor. The optimum experimental conditions for the concentrations of GDP, MgCl2, and NaCl in the assay buffer were initially determined. The assay was performed in assay buffer [20 mM HEPES, pH 7.5, 5 mM MgCl2, and 0.1% (w/v) BSA with 200 mM NaCl, 3 μM GDP] and membranes expressing human APJ receptor/well along with WGA PS beads. The reaction was initiated by addition of 0.2 nM [^35S]GTPγS (Perkin Elmer Life and Analytical Sciences, Waltham USA) in the absence or presence of various ligands and incubated at RT for 90 min. Nonspecific binding was determined in the presence of 100 μM GTPγS and was always less than 0.2% of total binding. All the results presented are means of several independent experiments and analyzed by non-linear regression methods using commercially available program Prism (GraphPad, San Diego, Calif.) to obtain EC50 detailed in Table 38.

Chain of human APJ receptor (P35414 whole entry): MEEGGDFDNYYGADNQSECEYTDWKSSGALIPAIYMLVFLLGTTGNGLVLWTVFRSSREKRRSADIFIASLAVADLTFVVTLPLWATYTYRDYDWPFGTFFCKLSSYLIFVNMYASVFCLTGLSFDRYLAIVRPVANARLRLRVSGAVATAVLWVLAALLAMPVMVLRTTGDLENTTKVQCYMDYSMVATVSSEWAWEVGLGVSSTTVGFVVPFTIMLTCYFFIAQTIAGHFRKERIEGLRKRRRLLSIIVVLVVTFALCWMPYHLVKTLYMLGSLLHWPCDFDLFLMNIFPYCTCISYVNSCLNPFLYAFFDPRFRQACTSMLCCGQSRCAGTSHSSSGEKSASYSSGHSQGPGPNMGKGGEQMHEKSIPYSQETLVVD

COc1cccc(OC)c1-n1c(NS(=O)(=O)[C@@H](C)[C@H](OC)c2ncc(Cl)cn2)nnc1[C@H]1CCCO1 (single isomer, unassigned) [Example 52.0, (1R,2S)-1-(5-chloropyrimidin-2-yl)-N-(4-(2,6-dimethoxyphenyl)-5-((R)-tetrahydrofuran-2-yl)-4H-1,2,4-triazol-3-yl)-1-methoxypropane-2-sulfonamide or (1R,2S)-1-(5-chloropyrimidin-2-yl)-N-(4-(2,6-dimethoxyphenyl)-5-((S)-tetrahydrofuran-2-yl)-4H-1,2,4-triazol-3-yl)-1-methoxypropane-2-sulfonamide]
EC50: 0.02 µM

COc1cccc(OC)c1-n1c(NS(=O)(=O)[C@@H](C)[C@H](C)c2ncc(C)cn2)nnc1[C@H]1CCOC1 (single isomer, unassigned) [Example 54.0, (2S,3R)-N-(4-(2,6-dimethoxyphenyl)-5-((R)-tetrahydrofuran-3-yl)-4H-1,2,4-triazol-3-yl)-3-(5-methylpyrimidin-2-yl)butane-2-sulfonamide or (2S,3R)-N-(4-(2,6-dimethoxyphenyl)-5-((S)-tetrahydrofuran-3-yl)-4H-1,2,4-triazol-3-yl)-3-(5-methylpyrimidin-2-yl)butane-2-sulfonamide]
EC50: 0.037 µM

COc1cccc(OC)c1-n1c(NS(=O)(=O)[C@@H](C)[C@H](C)c2ncc(C)cn2)nnc1[C@H]1CCOC1 (single isomer, unassigned) [Example 55.0, (2S,3R)-N-(4-(2,6-dimethoxyphenyl)-5-((R)-tetrahydrofuran-3-yl)-4H-1,2,4-triazol-3-yl)-3-(5-methylpyrimidin-2-yl)butane-2-sulfonamide or (2S,3R)-N-(4-(2,6-dimethoxyphenyl)-5-((S)-tetrahydrofuran-3-yl)-4H-1,2,4-triazol-3-yl)-3-(5-methylpyrimidin-2-yl)butane-2-sulfonamide]
EC50: 0.066 µM

COc1cccc(OC)c1-n1c(NS(=O)(=O)[C@@H](C)[C@H](C)c2ncc(C)cn2)nnc1[C@H]1CCCOC1 (single isomer, unassigned) [Example 58.0, (2S,3R)-N-(4-(2,6-dimethoxyphenyl)-5-((R)-tetrahydro-2H-pyran-3-yl)-4H-1,2,4-triazol-3-yl)-3-(5-methylpyrimidin-2-yl)butane-2-sulfonamide or (2S,3R)-N-(4-(2,6-dimethoxyphenyl)-5-((S)-tetrahydro-2H-pyran-3-yl)-4H-1,2,4-triazol-3-yl)-3-(5-methylpyrimidin-2-yl)butane-2-sulfonamide]
EC50: 0.12 µM

COc1cccc(OC)c1-n1c(NS(=O)(=O)[C@@H](C)[C@H](C)c2ncc(C)cn2)nnc1[C@H]1CCCOC1 (single isomer, unassigned) [Example 59.0, (2S,3R)-N-(4-(2,6-dimethoxyphenyl)-5-((R)-tetrahydro-2H-pyran-3-yl)-4H-1,2,4-triazol-3-yl)-3-(5-methylpyrimidin-2-yl)butane-2-sulfonamide or (2S,3R)-N-(4-(2,6-dimethoxyphenyl)-5-((S)-tetrahydro-2H-pyran-3-yl)-4H-1,2,4-triazol-3-yl)-3-(5-methylpyrimidin-2-yl)butane-2-sulfonamide]
EC50: 0.016 µM

COc1cccc(OC)c1-n1c(NS(=O)(=O)[C@@H](C)[C@H](C)c2ncc(Cl)cn2)nnc1[C@H]1CCCOC1 (single isomer, unassigned) [Example 62.0, (2S,3R)-3-(5-chloropyrimidin-2-yl)-N-(4-(2,6-dimethoxyphenyl)-5-((R)-tetrahydro-2H-pyran-3-yl)-4H-1,2,4-triazol-3-yl)butane-2-sulfonamide or (2S,3R)-3-(5-chloropyrimidin-2-yl)-N-(4-(2,6-dimethoxyphenyl)-5-((S)-tetrahydro-2H-pyran-3-yl)-4H-1,2,4-triazol-3-yl)butane-2-sulfonamide]
EC50: 0.026 µM

COc1cccc(OC)c1-n1c(NS(=O)(=O)[C@@H](C)[C@H](OC)c2ncc(Cl)cn2)nnc1[C@H]1CCCOC1 (single isomer, unassigned) [Example 64.0, (1R,2S)-1-(5-chloropyrimidin-2-yl)-N-(4-(2,6-dimethoxyphenyl)-5-((R)-tetrahydro-2H-pyran-3-yl)-4H-1,2,4-triazol-3-yl)-1-methoxypropane-2-sulfonamide or (1R,2S)-1-(5-chloropyrimidin-2-yl)-N-(4-(2,6-dimethoxyphenyl)-5-((S)-tetrahydro-2H-pyran-3-yl)-4H-1,2,4-triazol-3-yl)-1-methoxypropane-2-sulfonamide]
EC50: 0.029 µM

COc1cccc(OC)c1-n1c(NS(=O)(=O)[C@@H](C)[C@@H](OC(C)C)c2cnc(C)cn2)nnc1[C@H]1CCCO1 (single isomer, unassigned) [Example 66.0]
EC50: 0.0069 µM

COc1cccc(OC)c1-n1c(NS(=O)(=O)[C@@H](C)[C@@H](OC(C)C)c2cnc(C)cn2)nnc1[C@H]1CCCO1 (single isomer, unassigned) [Example 67.0]
EC50: 0.18 µM

COc1cccc(OC)c1-n1c(NS(=O)(=O)[C@@H](C)[C@H](C)c2ncc(Cl)cn2)nnc1[C@H]1OCC[C@H]1C (single isomer, unassigned) [Example 68.0, (2S,3R)-3-(5-chloropyrimidin-2-yl)-N-(4-(2,6-dimethoxyphenyl)-5-((2S,3R)-3-methyltetrahydrofuran-2-yl)-4H-1,2,4-triazol-3-yl)butane-2-sulfonamide or (2S,3R)-3-(5-chloropyrimidin-2-yl)-N-(4-(2,6-dimethoxyphenyl)-5-((2R,3S)-3-methyltetrahydrofuran-2-yl)-4H-1,2,4-triazol-3-yl)butane-2-sulfonamide]
EC50: 0.014 µM

COc1ncnc(OC)c1-n1c(NS(=O)(=O)[C@@H](C)[C@H](C)c2ncc(C)cn2)nnc1[C@H]1CCCO1 (single isomer, unassigned) [Example 69.0, (2S,3R)-N-(4-(4,6-dimethoxypyrimidin-5-yl)-5-((S)-tetrahydrofuran-2-yl)-4H-1,2,4-triazol-3-yl)-3-(5-methylpyrimidin-2-yl)butane-2-sulfonamide or (2S,3R)-N-(4-(4,6-dimethoxypyrimidin-5-yl)-5-((R)-tetrahydrofuran-2-yl)-4H-1,2,4-triazol-3-yl)-3-(5-methylpyrimidin-2-yl)butane-2-sulfonamide]
EC50: 0.082 µM

COc1ncnc(OC)c1-n1c(NS(=O)(=O)[C@@H](C)[C@H](C)c2ncc(C)cn2)nnc1[C@H]1CCCO1 (single isomer, unassigned) [Example 70.0, (2S,3R)-N-(4-(4,6-dimethoxypyrimidin-5-yl)-5-((S)-tetrahydrofuran-2-yl)-4H-1,2,4-triazol-3-yl)-3-(5-methylpyrimidin-2-yl)butane-2-sulfonamide or (2S,3R)-N-(4-(4,6-dimethoxypyrimidin-5-yl)-5-((R)-tetrahydrofuran-2-yl)-4H-1,2,4-triazol-3-yl)-3-(5-methylpyrimidin-2-yl)butane-2-sulfonamide]
EC50: 0.015 µM

COc1cccc(OC)c1-n1c(NS(=O)(=O)[C@@H](C)[C@H](C)c2ncc(C)cn2)nnc1[C@H]1OCC[C@H]1C (single isomer, unassigned) [Example 71.0, (2S,3R)-N-(4-(2,6-dimethoxyphenyl)-5-((2R,3S)-3-methyltetrahydrofuran-2-yl)-4H-1,2,4-triazol-3-yl)-3-(5-methylpyrimidin-2-yl)butane-2-sulfonamide or (2S,3R)-N-(4-(2,6-dimethoxyphenyl)-5-((2S,3R)-3-methyltetrahydrofuran-2-yl)-4H-1,2,4-triazol-3-yl)-3-(5-methylpyrimidin-2-yl)butane-2-sulfonamide]
EC50: 0.45 µM
